Data taken from PubChem BioAssay AID2060492 (Molecular Pharmacology Branch, DTP, NCI, 2025).

Test system: 695427-040-R-J1-PDC complex spheroids, viability percent T/C
Experiment: Anticancer human tumor 695427-040-R-J1-PDC patient-derived colon adenocarcinoma cell line growth inhibition [GQUAD]
Settings: for IC50: curve of first compound; for viability, T/C: stronger effect = lower value
How it was run: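 Viability of tumor cells grown as complex spheroids with endothelial and stromal cells, exposed to drug combinations. Top concentration at or near clinical Cmax (else 10 microM), diluted in half-log increments.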

[1] = second compound 0.0316 µM, first compound 0.0316 µM
[2] = second compound 0.0316 µM, first compound 0.1 µM
[3] = second compound 0.0316 µM, first compound 0.316 µM
[4] = second compound 0.0316 µM, first compound 1 µM
[5] = second compound 0.0316 µM, first compound 3.16 µM
[6] = second compound 0.0316 µM, first compound 10 µM
[7] = second compound 0.1 µM, first compound 0.0316 µM
[8] = second compound 0.1 µM, first compound 0.1 µM
[9] = second compound 0.1 µM, first compound 0.316 µM
[10] = second compound 0.1 µM, first compound 1 µM
[11] = second compound 0.1 µM, first compound 3.16 µM
[12] = second compound 0.1 µM, first compound 10 µM
[13] = second compound 0.316 µM, first compound 0.0316 µM
[14] = second compound 0.316 µM, first compound 0.1 µM
[15] = second compound 0.316 µM, first compound 0.316 µM
[16] = second compound 0.316 µM, first compound 1 µM
[17] = second compound 0.316 µM, first compound 3.16 µM
[18] = second compound 0.316 µM, first compound 10 µM
[19] = second compound 1 µM, first compound 0.0316 µM
[20] = second compound 1 µM, first compound 0.1 µM
[21] = second compound 1 µM, first compound 0.316 µM
[22] = second compound 1 µM, first compound 1 µM
[23] = second compound 1 µM, first compound 3.16 µM
[24] = second compound 1 µM, first compound 10 µM
[25] = second compound 3.16 µM, first compound 0.0316 µM
[26] = second compound 3.16 µM, first compound 0.1 µM
[27] = second compound 3.16 µM, first compound 0.316 µM
[28] = second compound 3.16 µM, first compound 1 µM
[29] = second compound 3.16 µM, first compound 3.16 µM
[30] = second compound 3.16 µM, first compound 10 µM
[31] = second compound 10 µM, first compound 0.0316 µM
[32] = second compound 10 µM, first compound 0.1 µM
[33] = second compound 10 µM, first compound 0.316 µM
[34] = second compound 10 µM, first compound 1 µM
[35] = second compound 10 µM, first compound 3.16 µM
[36] = second compound 10 µM, first compound 10 µM
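Note: spheroids exposed to compounds for seven days before readout.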

CC(=O)O[C@H]1C(=O)[C@@]2(C)[C@H]([C@H](OC(=O)c3ccccc3)[C@]3(O)C[C@H](OC(=O)[C@H](O)[C@@H](NC(=O)c4ccccc4)c4ccccc4)C(C)=C1C3(C)C)[C@]1(OC(C)=O)CO[C@@H]1C[C@@H]2O + Cc1[nH]c2ccc(F)cc2c1-c1nc2c3cccnc3c3ncccc3c2[nH]1
IC50 (second compound 0.0316 µM): 458 nM | IC50 (second compound 0.1 µM): 467 nM | IC50 (second compound 0.316 µM): 451 nM | IC50 (second compound 1 µM): 469 nM | IC50 (second compound 3.16 µM): 453 nM | IC50 (second compound 10 µM): 496 nM | viability, T/C [1]: 99.4% | viability, T/C [2]: 92.9% | viability, T/C [3]: 71.6% | viability, T/C [4]: 4.67% | viability, T/C [5]: 0.18% | viability, T/C [6]: 0.29% | viability, T/C [7]: 103% | viability, T/C [8]: 97.7% | viability, T/C [9]: 73.2% | viability, T/C [10]: 4.64% | viability, T/C [11]: 0.18% | viability, T/C [12]: 0.45% | viability, T/C [13]: 102% | viability, T/C [14]: 91.2% | viability, T/C [15]: 69.8% | viability, T/C [16]: 6.24% | viability, T/C [17]: 0.21% | viability, T/C [18]: 0.26% | viability, T/C [19]: 89.3% | viability, T/C [20]: 87% | viability, T/C [21]: 72.2% | viability, T/C [22]: 7.42% | viability, T/C [23]: 0.2% | viability, T/C [24]: 0.87% | viability, T/C [25]: 78.3% | viability, T/C [26]: 82.9% | viability, T/C [27]: 69.4% | viability, T/C [28]: 7.14% | viability, T/C [29]: 0.33% | viability, T/C [30]: 0.32% | viability, T/C [31]: 77.1% | viability, T/C [32]: 79.7% | viability, T/C [33]: 75.7% | viability, T/C [34]: 10% | viability, T/C [35]: 0.5% | viability, T/C [36]: 0.22%

CCCS(=O)(=O)Nc1ccc(F)c(C(=O)c2c[nH]c3ncc(-c4ccc(Cl)cc4)cc23)c1F + Cc1[nH]c2ccc(F)cc2c1-c1nc2c3cccnc3c3ncccc3c2[nH]1
IC50 (second compound 0.0316 µM): > 10000 nM | IC50 (second compound 0.1 µM): > 10000 nM | IC50 (second compound 0.316 µM): > 10000 nM | IC50 (second compound 1 µM): 9220 nM | IC50 (second compound 3.16 µM): 5020 nM | IC50 (second compound 10 µM): 2510 nM | viability, T/C [1]: 97.4% | viability, T/C [2]: 89.3% | viability, T/C [3]: 92.5% | viability, T/C [4]: 84.3% | viability, T/C [5]: 70.9% | viability, T/C [6]: 60.1% | viability, T/C [7]: 109% | viability, T/C [8]: 99.2% | viability, T/C [9]: 86% | viability, T/C [10]: 77.6% | viability, T/C [11]: 70.9% | viability, T/C [12]: 53.8% | viability, T/C [13]: 107% | viability, T/C [14]: 93.9% | viability, T/C [15]: 77.7% | viability, T/C [16]: 73.4% | viability, T/C [17]: 66.6% | viability, T/C [18]: 54.7% | viability, T/C [19]: 93.9% | viability, T/C [20]: 89.8% | viability, T/C [21]: 85.3% | viability, T/C [22]: 76.2% | viability, T/C [23]: 63.9% | viability, T/C [24]: 49% | viability, T/C [25]: 84% | viability, T/C [26]: 86.2% | viability, T/C [27]: 72% | viability, T/C [28]: 71.2% | viability, T/C [29]: 56.5% | viability, T/C [30]: 39.8% | viability, T/C [31]: 69.2% | viability, T/C [32]: 72.6% | viability, T/C [33]: 63.3% | viability, T/C [34]: 66% | viability, T/C [35]: 46% | viability, T/C [36]: 37.1%

COc1cc(C2c3cc4c(cc3C(OC3OC5COC(C)OC5C(O)C3O)C3COC(=O)C23)OCO4)cc(OC)c1O (stereo unspecified) + Cc1[nH]c2ccc(F)cc2c1-c1nc2c3cccnc3c3ncccc3c2[nH]1
IC50 (second compound 0.0316 µM): > 10000 nM | IC50 (second compound 0.1 µM): > 10000 nM | IC50 (second compound 0.316 µM): > 10000 nM | IC50 (second compound 1 µM): > 10000 nM | IC50 (second compound 3.16 µM): > 10000 nM | IC50 (second compound 10 µM): > 10000 nM | viability, T/C [1]: 118% | viability, T/C [2]: 90.7% | viability, T/C [3]: 105% | viability, T/C [4]: 102% | viability, T/C [5]: 87.4% | viability, T/C [6]: 78.1% | viability, T/C [7]: 110% | viability, T/C [8]: 92.6% | viability, T/C [9]: 113% | viability, T/C [10]: 68.8% | viability, T/C [11]: 84.1% | viability, T/C [12]: 76.7% | viability, T/C [13]: 112% | viability, T/C [14]: 83.3% | viability, T/C [15]: 80.3% | viability, T/C [16]: 87.3% | viability, T/C [17]: 85.8% | viability, T/C [18]: 74.1% | viability, T/C [19]: 91.9% | viability, T/C [20]: 95.4% | viability, T/C [21]: 90.5% | viability, T/C [22]: 87.6% | viability, T/C [23]: 91.5% | viability, T/C [24]: 71.2% | viability, T/C [25]: 81.2% | viability, T/C [26]: 85.9% | viability, T/C [27]: 82.7% | viability, T/C [28]: 82.7% | viability, T/C [29]: 81.3% | viability, T/C [30]: 69% | viability, T/C [31]: 65.9% | viability, T/C [32]: 74.3% | viability, T/C [33]: 87% | viability, T/C [34]: 83.8% | viability, T/C [35]: 68.7% | viability, T/C [36]: 64.3%
